The compounds below were run against T1, human apelin receptor (Homo sapiens, UniProt P35414) (assay: Measurement of apelin receptor agonist activity (cell-based assay determining the amount of intracellular cAMP)). Conditions: CHO cells stably expressing the human apelin receptor, Forskolin 10 μM, 30 minutes, 100% efficacy = [Pyr1]-apelin-13 0.300 μM, concentration giving 50% efficacy.
T1 construct: host or cells: CHO cells
T1 sequence (P35414 1-380): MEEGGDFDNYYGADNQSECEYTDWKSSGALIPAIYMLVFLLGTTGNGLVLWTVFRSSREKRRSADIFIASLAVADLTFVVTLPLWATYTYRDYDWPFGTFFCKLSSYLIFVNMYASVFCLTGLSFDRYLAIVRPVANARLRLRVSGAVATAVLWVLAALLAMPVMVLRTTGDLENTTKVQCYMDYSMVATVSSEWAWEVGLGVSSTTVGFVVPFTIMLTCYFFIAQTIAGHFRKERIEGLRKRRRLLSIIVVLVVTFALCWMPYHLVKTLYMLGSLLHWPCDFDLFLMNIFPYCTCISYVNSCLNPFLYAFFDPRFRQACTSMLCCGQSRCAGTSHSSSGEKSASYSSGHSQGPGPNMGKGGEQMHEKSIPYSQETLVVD
Experimental: Measurement of Apelin Receptor Agonist Activity
The apelin receptor agonist activity of the compound represented by formula (I) or (II) of the present invention was measured by cell-based assay for determining the amount of intracellular cAMP.
CHO cells (DiscoveRx Corp.) stably expressing the human apelin receptor were inoculated to wells of a microtiter plate and cultured overnight at 37° C. under conditions of 5% CO2.
Each test compound and Forskolin were added to the wells at the same time. Specifically, the test compound dissolved in DMSO was diluted with a Forskolin-containing buffer [DMEM/F-12, HEPES, no phenol red (#11039, GIBCO)] to prepare a mixed solution containing the test compound at a final concentration of […] (common ratio: 3, serial dilution: 11), Forskolin at a final concentration of 10 μM, and DMSO at a final concentration of 0.3% v/v, which was then added to the wells (N═4).
After 30 minutes, the cells were lysed, and HitHunter cAMP XS+ Assay #90-0075L (DiscoveRx Corp.) was added to the cell lysate. The mixture was left overnight, and the resulting chemiluminescence signals were then detected using Analyst GT (Molecular Devices LLC.) to determine the amount of cAMP.
The amount of cAMP determined by the addition of a positive control [Pyr1]-apelin-13 (final concentration: 0.300 μM) and Forskolin (final concentration: 10 μM) at the same time was used as an index to define 100% efficacy. The amount of cAMP determined by the addition of Forskolin (final concentration: 10 μM) alone was used as an index to define 0% efficacy.
A dose response curve was prepared from the final concentration of the test compound and the determined amount of cAMP using Sigmaplot 12.0.
With `COc1cccc(OC)c1-n1c(SCC(=O)O)nnc1-c1ccco1` [Example 61, {[4-(2,6-Dimethoxyphenyl)-5-(furan-2-yl)-4H-1,2,4-triazol-3-yl]sulfanyl}acetic acid] the EC50 was 0.412 µM.
Compound `COc1cccc(OC)c1-n1c(SCC(=O)O)nnc1-c1ccoc1` [Example 62, {[4-(2,6-Dimethoxyphenyl)-5-(furan-3-yl)-4H-1,2,4-triazol-3-yl]sulfanyl}acetic acid] has an EC50 of 0.808 µM.
In the case of `COc1cccc(OC)c1-n1c(SCC(=O)O)nnc1-c1cc(C)c(C)o1` [Example 63, {[4-(2,6-Dimethoxyphenyl)-5-(4,5-dimethylfuran-2-yl)-4H-1,2,4-triazol-3-yl]sulfanyl}acetic acid], the EC50 is reported as 0.716 µM.
Compound `COc1cccc(OC)c1-n1c(/C=C/C(=O)O)nnc1-c1ccc(C)o1` [Example 64, Ammonium (2E)-3-[4-(2,6-dimethoxyphenyl)-5-(5-methylfuran-2-yl)-4H-1,2,4-triazol-3-yl]prop-2-enoate] has an EC50 of 0.052 µM.
Compound `COc1cccc(OC)c1-n1c(/C=C/C(=O)O)nnc1-c1ccc(C)o1` [Example 65, Sodium (2E)-3-[4-(2,6-dimethoxyphenyl)-5-(5-methylfuran-2-yl)-4H-1,2,4-triazol-3-yl]prop-2-enoate] has an EC50 of 0.075 µM.
`CCOC(=O)COCc1nnc(-c2ccc(C)o2)n1-c1c(OC)cccc1OC` [Example 66, Ethyl {[4-(2,6-dimethoxyphenyl)-5-(5-methylfuran-2-yl)-4H-1,2,4-triazol-3-yl]methoxy}acetate] showed an EC50 of 0.817 µM.
Work on `COc1cccc(OC)c1-n1c(COCC(=O)O)nnc1-c1ccc(C)o1` [Example 67, {[4-(2,6-Dimethoxyphenyl)-5-(5-methylfuran-2-yl)-4H-1,2,4-triazol-3-yl]methoxy}acetic acid] yielded an EC50 of 0.774 µM.
In the case of `COc1cccc(OC)c1-n1c(CSc2nnc[nH]2)nnc1-c1ccc(C)o1` [Example 68, 4-(2,6-Dimethoxyphenyl)-3-(5-methylfuran-2-yl)-5-[(4H-1,2,4-triazol-3-ylsulfanyl)methyl]-4H-1,2,4-triazole], the EC50 is reported as 1.33 µM.
Work on `COc1cccc(OC)c1-n1c(CS(=O)(=O)c2nnc[nH]2)nnc1-c1ccc(C)o1` [Example 69] yielded an EC50 of 0.696 µM.
Compound `COc1cccc(OC)c1-n1c(CN)nnc1-c1ccc(C)o1` [Example 70, 1-[4-(2,6-Dimethoxyphenyl)-5-(5-methylfuran-2-yl)-4H-1,2,4-triazol-3-yl]methanamine] has an EC50 of 0.384 µM.
Work on `COc1cccc(OC)c1-n1c(CNS(C)(=O)=O)nnc1-c1ccc(C)o1` [Example 71, N-{[4-(2,6-Dimethoxyphenyl)-5-(5-methylfuran-2-yl)-4H-1,2,4-triazol-3-yl]methyl}methanesulfonamide] yielded an EC50 of 1.07 µM.
With `COc1cccc(OC)c1-n1c(CN(C(=O)c2ccc(C)cc2)C(=O)c2ccc(C)cc2)nnc1-c1ccc(C)o1` [Example 72, N-{[4-(2,6-Dimethoxyphenyl)-5-(5-methylfuran-2-yl)-4H-1,2,4-triazol-3-yl]methyl}-4-methyl-N-(4-methylbenzoyl)benzamide] the EC50 was 0.095 µM.
`COc1cccc(OC)c1-n1c(CC#N)nnc1-c1ccc(C)o1` [Example 73, [4-(2,6-Dimethoxyphenyl)-5-(5-methylfuran-2-yl)-4H-1,2,4-triazol-3-yl]acetonitrile] showed an EC50 of 1.02 µM.
Compound `COc1cccc(OC)c1-n1c(SCc2nnn[nH]2)nnc1-c1ccc(C)o1` [Example 74, 5-({[4-(2,6-Dimethoxyphenyl)-5-(5-methylfuran-2-yl)-4H-1,2,4-triazol-3-yl]sulfanyl}methyl)-1H-tetrazole] has an EC50 of 0.098 µM.
`COc1cccc(OC)c1-n1c(SCc2cccnn2)nnc1-c1ccc(C)o1` [Example 75, 3-({[4-(2,6-Dimethoxyphenyl)-5-(5-methylfuran-2-yl)-4H-1,2,4-triazol-3-yl]sulfanyl}methyl)pyridazine] showed an EC50 of 0.128 µM.
Work on `COc1cccc(OC)c1-n1c(SCc2nccs2)nnc1-c1ccc(C)o1` [Example 76, 4-(2,6-Dimethoxyphenyl)-3-(5-methylfuran-2-yl)-5-[(1,3-thiazol-2-ylmethyl)sulfanyl]-4H-1,2,4-triazole] yielded an EC50 of 0.158 µM.
In the case of `COC(=O)c1ccccc1CSc1nnc(-c2ccc(C)o2)n1-c1c(OC)cccc1OC` [Example 77, Methyl 2-({[4-(2,6-dimethoxyphenyl)-5-(5-methylfuran-2-yl)-4H-1,2,4-triazol-3-yl]sulfanyl}methyl)benzoate], the EC50 is reported as 0.557 µM.
Compound `COc1cccc(OC)c1-n1c(SCc2ccccc2C(=O)O)nnc1-c1ccc(C)o1` [Example 78, 2-({[4-(2,6-Dimethoxyphenyl)-5-(5-methylfuran-2-yl)-4H-1,2,4-triazol-3-yl]sulfanyl}methyl)benzoic acid] has an EC50 of 0.034 µM.
`COC(=O)c1cccc(CSc2nnc(-c3ccc(C)o3)n2-c2c(OC)cccc2OC)c1` [Example 79, Methyl 3-({[4-(2,6-dimethoxyphenyl)-5-(5-methylfuran-2-yl)-4H-1,2,4-triazol-3-yl]sulfanyl}methyl)benzoate] showed an EC50 of 0.208 µM.
Work on `COc1cccc(OC)c1-n1c(SCc2cccc(C(=O)O)c2)nnc1-c1ccc(C)o1` [Example 80, 3-({[4-(2,6-Dimethoxyphenyl)-5-(5-methylfuran-2-yl)-4H-1,2,4-triazol-3-yl]sulfanyl}methyl)benzoic acid] yielded an EC50 of 1.53 µM.
Work on `COC(=O)c1ccc(CSc2nnc(-c3ccc(C)o3)n2-c2c(OC)cccc2OC)cc1` [Example 81, Methyl 4-({[4-(2,6-dimethoxyphenyl)-5-(5-methylfuran-2-yl)-4H-1,2,4-triazol-3-yl]sulfanyl}methyl)benzoate] yielded an EC50 of 0.071 µM.
In the case of `COc1cccc(OC)c1-n1c(SCc2ccc(C(=O)O)cc2)nnc1-c1ccc(C)o1` [Example 82, 4-({[4-(2,6-Dimethoxyphenyl)-5-(5-methylfuran-2-yl)-4H-1,2,4-triazol-3-yl]sulfanyl}methyl)benzoic acid], the EC50 is reported as 5.46 µM.
Compound `COc1cccc(OC)c1-n1c(SCC(N)=O)nnc1-c1ccc(C)o1` [Example 83, 2-{[4-(2,6-Dimethoxyphenyl)-5-(5-methylfuran-2-yl)-4H-1,2,4-triazol-3-yl]sulfanyl}acetamide] has an EC50 of 0.219 µM.
In the case of `COc1cccc(OC)c1-n1c(SCC#N)nnc1-c1ccc(C)o1` [Example 84, {[4-(2,6-Dimethoxyphenyl)-5-(5-methylfuran-2-yl)-4H-1,2,4-triazol-3-yl]sulfanyl}acetonitrile], the EC50 is reported as 0.267 µM.
`COc1cccc(OC)c1-n1c(SC)nnc1-c1ccc(C)o1` [Example 85, 4-(2,6-Dimethoxyphenyl)-3-(5-methylfuran-2-yl)-5-(methylsulfanyl)-4H-1,2,4-triazole] was tested, and the EC50 was 0.253 µM.
With `COc1cccc(OC)c1-n1c(-c2ccc(C)o2)nnc1S(C)(=O)=O` [Example 86, 4-(2,6-Dimethoxyphenyl)-3-(5-methylfuran-2-yl)-5-(methylsulfonyl)-4H-1,2,4-triazole] the EC50 was 2.02 µM.
`COc1cccc(OC)c1-n1c(OCC(OC)OC)nnc1-c1ccc(C)o1` [Example 87, 3-(2,2-Dimethoxyethoxy)-4-(2,6-dimethoxyphenyl)-5-(5-methylfuran-2-yl)-4H-1,2,4-triazole] gave an EC50 of 0.744 µM.
`COc1cccc(OC)c1-n1c(OCC(=O)O)nnc1-c1ccc(C)o1` [Example 88, {[4-(2,6-Dimethoxyphenyl)-5-(5-methylfuran-2-yl)-4H-1,2,4-triazol-3-yl]oxy}acetic acid] was tested, and the EC50 was 0.035 µM.
